The values below come from patent US20100215775A1, “USE OF C10-C14-ALKANEDIOLS IN THE PREPARATION OF A COMPOSITION FOR THE PROPHYLAXIS AND/OR TREATMENT OF MALASSEZIA-INDUCED DANDRUFF FORMATION” (SYMRISE GmbH & Co. KG, priority 2006, published 2010).

The subject of the assay is Malassezia furfur strain DSM6171. Description: MIC value measurement by agar dilution method against Malassezia furfur. The following applies: for MIC / factor by which activity is greater than that of 1,2-octanediol: Malassezia furfur; for MIC: DSM6171, 72 h; for factor by which activity is greater than that of 1,2-octanediol: ratio of MIC values versus 1,2-octanediol (MIC 225 ppm). The format is cell-based, Malassezia furfur (synonym: Pityrosporum ovale). How it is done:
The antimicrobial action of the alkane-1,2-diols against Malassezia furfur was determined by means of the agar dilution method in accordance with DIN 58 940/ICS and DIN 58 944/ICS. Malassezia furfur strain DSM6171 was used as the test organism. Petri dishes having a diameter of 9 cm and containing 8.7 ml of freshly prepared Mueller-Hinton agar (Merck, art. 1.05437) kept liquid at 50° C. and containing 3% Tween 80 (Merck, art. 8.2217) were used. In order to prepare the test concentrations, ethanolic stock solutions of the alkane-1,2-diol samples were diluted with 96% ethanol until the following final test concentrations of the alkane-1,2-diols in the Mueller-Hinton agar were present: 25,000 ppm, 12,500 ppm, 6300 ppm, 3600 ppm, 1800 ppm, 1100 ppm, 900 ppm, 450 ppm, 225 ppm, 112 ppm, 56 ppm, 28 ppm, 14 ppm, 7 ppm, 4 ppm. 2 agar plates were cast per test concentration and nutrient medium. After solidification and drying (about 1 hour at 37° C.), the test plates were inoculated punctually with in each case 1 μl of the Malassezia furfur (DSM 6171-2.8×10^7 KBE/ml) test organism suspensions. The inoculated plates were subsequently incubated for 72 hours at 30° C. and then evaluated. The lowest active ingredient concentration at which, macroscopically, no growth is present was regarded as the MIC (minimum inhibitory concentration). The MIC values of the alkane-1,2-diols listed in Table 1 were determined in accordance with the general test conditions.
(In general: In agar dilution, organisms are placed on agar that contains the substance at set levels.)

Where [1] appears, read: agar dilution, Mueller-Hinton agar with 3% Tween 80, 72 hours at 30° C., lowest concentration with no macroscopic growth.

Values after ≈ are worked out from the molar mass of the structure shown.

`CCCCCCC(O)CO` (stereo not shown) [1,2-Octanediol]: the lowest concentration to inhibit growth under setting [1] (MIC) was 225 µg/mL (≈ 1.54 mM). As for `CCCCCCCCC(O)CO` (stereo not shown) [1,2-Decanediol], the “factor by which activity is greater than that of 1,2-octanediol” value (“factor” below) is reported as “about 8”. In the case of `CCCCC(O)CO` (stereo not shown) [1,2-Hexanediol], the MIC – broadly, the least concentration at which growth counts as inhibited – under setting [1] came to 12500 µg/mL (≈ 106 mM). The same measure, in the same setting: with `CCCC(O)CO` (stereo not shown) [1,2-Pentanediol] the figure was 25000 µg/mL (≈ 240 mM). On to `CCCCCCCCCCCCCCCCC(O)CO` (stereo not shown) [1,2-Octadecanediol], for which, under setting [1], the minimal inhibitory concentration (MIC) is more than 1100 µg/mL and the MIC value is on record as more than 1100 ppm. With `CCCCCCCCCCC(O)CO` (stereo not shown) [1,2-Dodecanediol], the “factor” value is on record as “about 16”. As to `CCCCCCCCCCCCCCC(O)CO` (stereo not shown) [1,2-Hexadecanediol], under setting [1], the minimum inhibitory concentration (MIC) is 1100 µg/mL (≈ 4.26 mM).

For `CCCCCCCCCCCCC(O)CO` (stereo not shown) [1,2-Tetradecanediol], the “factor” value is “at least 32”. In addition, the minimal inhibitory concentration (MIC) under setting [1] was less than 7 µg/mL.
